Columns and labels:
[1] = tested on: Chinese hamster ovary (CHO) cells; assay: Method 7: Micronucleus Assay; format: cell-based; details: in vitro, with and without S9
Procedure: Method 7: Micronucleus Assay
An in vitro micronucleus assay can be used to determine the mutagenic potential of a test compound. This assay detects chromosome abnormalities resulting from exposure to a test compound by measuring the formation of small membrane-bound DNA fragments such as micronuclei in the cytoplasm of interphase cells.
The assay is conducted using Chinese hamster ovary (CHO) cells under different test conditions in the absence and presence of metabolic activation. Concordance in outcomes between this screening assay and in vitro cytogenetics is around 85%. Direct (−S9) testing is conducted using 24 hour or 3 hour continuous treatments, whereas testing with metabolic activation (+S9) involves a 3 hour treatment. Clastogenicity is indicated by an increase in numbers of micronucleated cells in the first interphase after exposure (in cytokinesis-blocked binucleated cells). The results are compared to the level of cytotoxicity (measured by the proportion of binucleated cells) a test compound produces. […] A test compound displaying a negative response has not fulfilled specific evaluation criteria for the assay which may include one or both of the following: 1) a reproducible concentration dependent increase in the specific assay endpoint when compared to a negative (vehicle) control and/or 2) one or more test concentrations achieving a minimum fold increase in the specific endpoint over controls. • Positive—A positive result identifies a genotoxic hazard defined by the assays specific endpoint (ex. positive in vitro micronucleus). A test compound displaying a positive response has fulfilled specific evaluation criteria for the assay which may include one or both of the following: 1) a reproducible concentration dependent increase in the specific assay endpoint when compared to a negative (vehicle) control and/or 2) one or more test concentrations achieving a minimum fold increase in the specific endpoint over controls. • Equivocal—An equivocal result is reserved for situations where the test compound has been evaluated in a valid assay test or tests (i.e. assay acceptability criteria satisfactory), but fails to display a negative or positive result as defined by established evaluation criteria. This may convey the presence of a weak positive response that requires additional repeat testing or eventual confirmatory testing case-by-case. • Inconclusive—An inconclusive result is reserved for situations where the test compound has been evaluated in an invalid assay test (i.e. assay acceptability criteria unsatisfactory for technical reasons, ex. negative or positive controls fail to respond appropriately). Repeat testing is recommended in order to establish a valid assay test result.

[2] = Method 11: Single Dose Pharmacokinetics and Oral Bioavailability in Male Sprague-Dawley Rat; format: in vivo; details: mean
Procedure: Repeat testing is recommended in order to establish a valid assay test result. P. Pharmacokinetic/Pharmacodynamic Study Method 11: Single Dose Pharmacokinetics and Oral Bioavailability in Male Sprague-Dawley Rat Following Intravenous and Oral Administration
An in vivo model can be used to evaluate the single dose pharmacokinetic properties and absolute oral bioavailability of a test compound. As described more specifically below, a test compound is administered to Sprague-Dawley (SD) rats either intravenously or orally in a crossover study design and the resulting pharmacokinetic properties and oral bioavailability are measured.
Male rats are administered a 2.0 mg/kg dose orally (n=2) by gavage as a suspension (0.5% methylcellulose/0.1% Tween 80 in distilled water). After a 72 hour wash-out periond, the same rats were administered 2.0 mg/kg dose bolus intravenously (n=2) as a solution (70% PEG 400/20% 0.05 M Citrate Buffer pH 3/10% Ethanol). Serial blood samples (for plasma) are collected from each rat over a 24 hour post dose for each route. […] Pharmacokinetic parameters of a test compound are determined from the plasma concentration-time data using non-compartmental methods. • LC/MS/MS: 1) Column: Hyperso; AQUASIL C-18 2.1×20 mm, 3.0 μm; 2) Mobile phase: Aqueous Water with 0.1% Formic Acid, Orgainic: Acetonitrile; Ionization: +ESI (API 4000). MRM: m/z 494.4→m/z 394.0 (Example 261 in WO2004096810), m/z 509.44→m/z 409.80 (Example 263 in WO2004096810), m/z 495.33→m/z 395.20 (Example 262 in WO2004096810). The detection limits are 0.12 ng/mL (Example 261 in WO2004096810), 1.3 ng/mL (Example 263 in WO2004096810) and 0.11 ng/mL (Example 262 in WO2004096810).
Watson (Version 6.4.0.04) is used to calculate mean test compound concentrations, corresponding standard deviations (SD), and percent coefficient of variation (% CV), and to estimate pharmacokinetic parameters (derived by noncompartmental methods) and associated statistics (mean, SD & CV %) if applicable. (Since n=2, no SD or CV calculated ?). Concentrations below the limit of quantitation (BLQ) are reported as zero (0) and are used in the evaluation of mean concentrations and the estimation of AUC. The peak plasma concentration (Cmax) and the time to reach peak concentration (tmax) are recorded directly from individual plasma concentration-time profiles. The terminal log-linear phase of the plasma concentration-time curve is identified by linear regression of data points. The terminal half-life (t1/2) is calculated as ln(2) divided by absolute value of the slope of the terminal log-linear phase. The area under the plasma concentration-time curve from time zero to time of the last quantifiable concentration (t) [AUC(0-t)] is determined using the linear trapezoidal method. The area under the plasma concentration-time curve from time zero to infinity [AUC(0-∞)] is determined as AUC(0-t) plus the extrapolated area. The extrapolated area is determined by dividing the last observed plasma concentration by the slope of the terminal log-linear phase. Systemic plasma clearance (CL) is calculated as dose/AUC(0-∞) while the volume of distribution at steady state (Vdss) is calculated as CL×MRT, where MRT (mean residence time) is defined as AUMC(0-∞)/AUC(0-∞). The absolute PO bioavailability (F) is calculated as a ratio of the dose-normalized AUC(0-∞) of individual animal after PO administration to the dose-normalized AUC(0-∞) of individual animal after IV administration given the crossover study design.

[3] = tested on: spontaneously hypertensive rats (SHR); assay: Method 12: SHR Rat Combination Therapy, blood pressure by telemetry; format: in vivo; details: 1 mg/kg once daily oral
urinary cGMP = assay: Method 12: SHR Rat Combination Therapy, urinary cGMP mechanistic biomarker; format: in vivo; details: 0-24 hour urine collection on day 9

Compound: CCOCCn1nc(CC)c2nc(N3CCC(C(=O)O)CC3)nc(Nc3cc(C)ccn3)c21 [Carboxypiperidine Compound, 1-(1-(2-ethoxyethyl)-3-ethyl-7-(4-methylpyridin-2-ylamino)-1H-pyrazolo[4,3-d]pyrimidin-5-yl)piperidine-4-carboxylic acid]
- METHOD 7: MI[…] [1]: equivocal
- AUC(0-inf) ([2]; plasma, iv, 2 mg/kg): 17500 ng·h/mL
- Vd ([2]; plasma, iv, 2 mg/kg, read-out: Vdss): 0.715 L/kg
- AUC(0-inf) ([2]; plasma, po, 2 mg/kg): 9070 ± 2300 ng·h/mL
- Cmax ([2]; plasma, po, 2 mg/kg): 1360 ± 216 ng/mL
- Tmax ([2]; plasma, po, 2 mg/kg): 30 ± 12 min
- F ([2]; po 2 mg/kg vs iv 2 mg/kg): 51.8 ± 13.1%
- reduction of blood pressure from pre-dose baseline in comparison to vehicle treated group ([3]; day 1): 11±1 mmHg
- reduction of blood pressure below pre-dose baseline ([3]; day 7): 9±1 mmHg
- urinary cGMP in comparison to vehicle treated group (urinary cGMP): elevated

Reference: patent US8518956B2, “1-(1-(2-ethoxyethyl)-3-ethyl-7-(4-methylpyridin-2-ylamino)-1H-pyrazolo[4,3-d]pyrimidin-5-yl) piperidine-4-carboxylic acid and salts thereof” (priority 2005, dated 2013)
